Values of other authors, collected in patent US10703699B2, “Solubilization of pterostilbene and resveratrol for aqueous beverages” (Ironstone Separations, Inc., priority 2013, dated 2020).

Columns and labels:
[1] = animal studies

For `Oc1ccc(/C=C/c2cc(O)cc(O)c2)cc1` [Resveratrol, 3,5,4′-trihydroxy-trans-stilbene], which bioavailability [1] is on record?
Its bioavailability is 20%.

What does the source list for “trans-3,5-dimethoxy-4-hydroxystilbene [Pterostilbene]”?
bioavailability [1]: 80%; Solubility in aqueous media: very low
